Measurements: patent US20090093469A1, “Phenylaminopropanol Derivatives and Methods of Their Use” (WYETH, priority 2004, published 2009)
Structures can show the parent of a compound that is named as a salt.

The compounds below were run against T1, hNET (Homo sapiens, UniProt P23975) (assay: Norepinephrine (NE) uptake assay in MDCK-Net6 cells stably transfected with human hNET). Conditions: MDCK-Net6, read-out: % Inhibition @ 1 μM (hNET).
T1 construct: expressed in transfected cells
Format: cell-based

T1 sequence (P23975 whole entry): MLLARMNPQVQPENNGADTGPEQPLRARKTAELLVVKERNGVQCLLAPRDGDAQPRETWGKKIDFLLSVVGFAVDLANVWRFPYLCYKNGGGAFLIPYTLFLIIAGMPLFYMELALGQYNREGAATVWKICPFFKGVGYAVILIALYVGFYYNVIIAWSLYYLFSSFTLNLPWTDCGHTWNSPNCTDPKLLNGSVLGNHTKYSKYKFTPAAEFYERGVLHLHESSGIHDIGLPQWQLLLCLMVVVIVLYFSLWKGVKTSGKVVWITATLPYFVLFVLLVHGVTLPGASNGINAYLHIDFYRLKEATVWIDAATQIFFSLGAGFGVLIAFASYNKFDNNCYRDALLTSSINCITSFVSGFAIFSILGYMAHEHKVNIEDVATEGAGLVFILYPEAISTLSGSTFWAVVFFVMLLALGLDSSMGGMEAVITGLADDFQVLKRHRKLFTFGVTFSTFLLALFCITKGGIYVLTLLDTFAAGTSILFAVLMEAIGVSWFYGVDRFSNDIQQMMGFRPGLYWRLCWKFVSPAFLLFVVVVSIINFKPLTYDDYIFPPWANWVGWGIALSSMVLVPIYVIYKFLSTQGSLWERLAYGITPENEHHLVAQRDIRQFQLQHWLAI

`CNC[C@@H](O)[C@H](c1ccccc1)n1c(=O)n(C(C)C)c2ccccc21` [Example 203, 1-[(1S,2R)-2-hydroxy-3-(methylamino)-1-phenylpropyl]-3-isopropyl-1,3-dihydro-2H-benzimidazol-2-one hydrochloride] was tested. Which inhibition at 1 µM did it give?
The inhibition at 1 µM was 98.9%.

Which inhibition at 1 µM does the source give for `CCNC[C@@H](O)[C@H](c1ccccc1)n1c(=O)n(C(C)C)c2ccc(F)cc21` [Example 204, 3-[(1S,2R)-3-(ethylamino)-2-hydroxy-1-phenylpropyl]-5-fluoro-1-isopropyl-1,3-dihydro-2H-benzimidazol-2-one hydrochloride] here?
Its inhibition at 1 µM is 47.4%.

`CNC[C@@H](O)[C@H](c1ccccc1)n1c(=O)n(C)c2ccccc21` [Example 205, 1-[(1S,2R)-2-hydroxy-3-(methylamino)-1-phenylpropyl]-3-methyl-1,3-dihydro-2H-benzimidazol-2-one hydrochloride] was tested. Which inhibition at 1 µM did it give?
The inhibition at 1 µM was 82.9%.

With `CCn1c(=O)n([C@@H](c2ccccc2)[C@H](O)CNC)c2cc(F)ccc21` [Example 206, 1-Ethyl-5-fluoro-3-[(1S,2R)-2-hydroxy-3-(methylamino)-1-phenylpropyl]-1,3-dihydro-2H-benzimidazol-2-one hydrochloride] as the compound, how does the inhibition at 1 µM read?
Its inhibition at 1 µM is 96.9%.

`CCn1c(=O)n([C@@H](c2ccccc2)[C@H](O)CNC)c2c(F)cccc21` [Example 207, 1-Ethyl-4-fluoro-3-[(1S,2R)-2-hydroxy-3-(methylamino)-1-phenylpropyl]-1,3-dihydro-2H-benzimidazol-2-one hydrochloride] was tested. Which inhibition at 1 µM did it give?
Its inhibition at 1 µM is 98.3%.

`CNC[C@@H](O)[C@H](c1cccc(F)c1)n1c(=O)n(C(C)C)c2cccc(F)c21` [Example 208, 4-fluoro-3-[(1S,2R)-1-(3-fluorophenyl)-2-hydroxy-3-(methylamino)-propyl]-1-isopropyl-1,3-dihydro-2H-benzimidazol-2-one hydrochloride] was tested. Which inhibition at 1 µM did it give?
The inhibition at 1 µM was 99.8%.

Which inhibition at 1 µM does the source give for `CCn1c(=O)n([C@@H](c2cccc(F)c2)[C@H](O)CNC)c2c(F)cccc21` [Example 209, 1-Ethyl-4-fluoro-3-[(1S,2R)-2-hydroxy-3-(methylamino)-1-(3-fluorophenyl)-propyl]-1,3-dihydro-2H-benzimidazol-2-one hydrochloride] here?
Its inhibition at 1 µM is 99.3%.

Same assay, conditions: test compound 1 μM; [3H]NE uptake, MDCK-Net6 cells; read-out: % Inhibition @ 1 μM (hNET)

How did the inhibition at 1 µM turn out when `CNC[C@@H](O)[C@H](c1cccc(F)c1)N1C(=O)C(C)(C)c2ccccc21` [Example 210, 1-[(1S,2R)-1-(3-fluorophenyl)-2-hydroxy-3-(methylamino)propyl]-3,3-dimethyl-1,3-dihydro-2H-indol-2-one hydrochloride] was run?
Its inhibition at 1 µM is 96.3%.

For `CNC[C@@H](O)[C@H](c1cccc(F)c1)n1cc(-c2cccc(F)c2F)c2ccccc21` [Example 211, (1S,2R)-1-[3-(2,3-difluorophenyl)-1H-indol-1-yl]-1-(3-fluorophenyl)-3-(methylamino)propan-2-ol hydrochloride], which inhibition at 1 µM is on record?
Its inhibition at 1 µM is 99.8%.

With `CNC[C@@H](O)[C@H](c1cccc(F)c1)n1cc(-c2ccccc2Cl)c2ccccc21` [Example 214, (1S,2R)-1-[3-(2-chlorophenyl)-1H-indol-1-yl]-1-(3-fluorophenyl)-3-(methylamino)propan-2-ol hydrochloride] as the compound, how does the inhibition at 1 µM read?
Its inhibition at 1 µM is 99.9%.
